From PubChem BioAssay AID212 (DTP/NCI, 2004) come the findings set out here.

The assay concerns BDF1 mice, colon carcinoma 38 sc, T/C %. Description: NCI In Vivo Anticancer Drug Screen. Data for tumor model Colon Carcinoma 38 (subcutaneous) in B6D2F1 (BDF1) mice. Particulars: endpoint: median tumor weight (est.), higher = larger tumour. A digest of the protocol: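 T/C readout: treated group (T) measurement over vehicle control group (C) measurement. Endpoint is survival or tumor size in mice bearing a transplanted tumor.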

The mark [1] stands for this setting: dose: 50.0 mg/kg/injection, schedule: Q07DX002 (ip), vehicle: Klucel (hydroxypropylcellulose) (HPC).
[2] abbreviates: dose: 100.0 mg/kg/injection, schedule: Q07DX002 (ip), vehicle: Klucel (hydroxypropylcellulose) (HPC).
Setting [3] is: dose: 200.0 mg/kg/injection, schedule: Q07DX002 (ip), vehicle: Klucel (hydroxypropylcellulose) (HPC).
The mark [4] stands for this setting: dose: 400.0 mg/kg/injection, schedule: Q07DX002 (ip), vehicle: Klucel (hydroxypropylcellulose) (HPC).
Setting [5] is: dose: 800.0 mg/kg/injection, schedule: Q07DX002 (ip), vehicle: Klucel (hydroxypropylcellulose) (HPC).
[6] abbreviates: dose: 25.0 mg/kg/injection, schedule: Q07DX002 (ip), vehicle: Klucel (hydroxypropylcellulose) (HPC).
The mark [7] stands for this setting: dose: 100.0 mg/kg/injection, schedule: Q07DX002 (ip), vehicle: suspension in saline.
[8] abbreviates: dose: 200.0 mg/kg/injection, schedule: Q07DX002 (ip), vehicle: suspension in saline.
[9] abbreviates: dose: 400.0 mg/kg/injection, schedule: Q07DX002 (ip), vehicle: suspension in saline.
Where [10] appears, read: dose: 25.0 mg/kg/injection, schedule: Q07DX002 (ip), vehicle: saline.
Setting [11] is: dose: 100.0 mg/kg/injection, schedule: Q07DX002 (ip), vehicle: saline.
Where [12] appears, read: dose: 200.0 mg/kg/injection, schedule: Q07DX002 (ip), vehicle: saline.
Setting [13] is: dose: 400.0 mg/kg/injection, schedule: Q07DX002 (ip), vehicle: saline.
[14] abbreviates: dose: 25.0 mg/kg/injection, schedule: Q07DX003 (ip), vehicle: Klucel (hydroxypropylcellulose) (HPC).
Setting [15] is: dose: 100.0 mg/kg/injection, schedule: Q07DX003 (ip), vehicle: Klucel (hydroxypropylcellulose) (HPC).
Where [16] appears, read: dose: 200.0 mg/kg/injection, schedule: Q07DX003 (ip), vehicle: Klucel (hydroxypropylcellulose) (HPC).
[17] abbreviates: dose: 400.0 mg/kg/injection, schedule: Q07DX003 (ip), vehicle: Klucel (hydroxypropylcellulose) (HPC).
Where [18] appears, read: dose: 12.5 mg/kg/injection, schedule: Q07DX003 (ip), vehicle: Klucel (hydroxypropylcellulose) (HPC).
[19] abbreviates: dose: 12.5 mg/kg/injection, schedule: Q07DX002 (ip), vehicle: saline.

Where “and” joins values, the source holds several entries; their conditions need not be identical. Equal entries are not always repeated. Results filed as inconclusive are left out.

Consider `ClCCN(CCCl)c1ccc(/C=C/c2ccccc2)cc1`, for which the T/C runs as follows: under setting [1], 71 % of control; under setting [2], 116 % of control; under setting [3], 72 % of control; under setting [4], 71 % of control; under setting [5], 79 % of control.
Consider `CSc1ncc2ncn(C3OC(CO)C(O)C3O)c2n1` (centres undefined), for which the T/C under setting [6] is 194 % of control and the T/C under setting [4] was 56 % of control.
With `COc1ccc(S(=O)(=O)N/N=C/C(=O)O)cc1`, the T/C (dose: 6.25 mg/kg/injection, schedule: Q07DX002 (ip), vehicle: saline with Tween-80) was 82 % of control; the T/C (dose: 25.0 mg/kg/injection, schedule: Q07DX002 (ip), vehicle: saline with Tween-80) was 96 % of control and 104 % of control; the T/C (dose: 50.0 mg/kg/injection, schedule: Q07DX002 (ip), vehicle: saline with Tween-80) was 117 % of control and 100 % of control; the T/C (dose: 200.0 mg/kg/injection, schedule: Q07DX002 (ip), vehicle: saline with Tween-80) is 87 % of control and 95 % of control.
Turning to `Nc1nc2n[nH]nc2c(=O)[nH]1`, the T/C is 64 % of control (dose: 50.0 mg/kg/injection, schedule: Q07DX002 (ip), vehicle: suspension in saline); 80 % of control under setting [7]; 57 % of control under setting [8]; 51 % of control under setting [9].
`C1CN2CN3CCN(CN1C3)C2`: the T/C runs as follows: under setting [10], 111 % of control; under setting [11], 166 % of control; under setting [12], 115 % of control.
For `CCS/C(SC)=C(/c1ccccc1)[P+](c1ccccc1)(c1ccccc1)c1ccccc1`, the T/C was 87 % of control (dose: 1.5 mg/kg/injection, schedule: Q07DX002 (ip), vehicle: Klucel (hydroxypropylcellulose) (HPC)) and 116 % of control (dose: 3.0 mg/kg/injection, schedule: Q07DX002 (ip), vehicle: Klucel (hydroxypropylcellulose) (HPC)).
Regarding `O=C1NC(O)CCN1C1OC(CO)C(O)C1O` (centres undefined), the T/C was 153 % of control under setting [11]; 94 % of control (dose: 100.0 mg/kg/injection, schedule: Q07DX003 (ip), vehicle: saline); 192 % of control under setting [12]; 91 % of control (dose: 200.0 mg/kg/injection, schedule: Q07DX003 (ip), vehicle: saline); 89 % of control under setting [13]; 157 % of control (dose: 400.0 mg/kg/injection, schedule: Q07DX003 (ip), vehicle: saline). Besides, the T/C (dose: 800.0 mg/kg/injection, schedule: Q07DX002 (ip), vehicle: saline) is 113 % of control.
In the case of `CCCCCC(=O)O[C@]1(C(C)=O)CC[C@H]2[C@@H]3CCC4=CC(=O)CC[C@]4(C)[C@H]3CC[C@@]21C`, the T/C is, setting by setting: under setting [14], 78 % of control; (dose: 50.0 mg/kg/injection, schedule: Q07DX003 (ip), vehicle: Klucel (hydroxypropylcellulose) (HPC)) 62 % of control; under setting [15], 81 % of control; under setting [16], 82 % of control; under setting [17], 49 % of control.
On to `CC(C)NC(=O)OCc1c(COC(=O)NC(C)C)c(-c2ccc(Cl)c(Cl)c2)n2c1CCC2`, for which the T/C by setting is: (dose: 12.5 mg/kg/injection, schedule: Q07DX002 (ip), vehicle: distilled water + Tween-80) 82 % of control and 99 % of control; (dose: 25.0 mg/kg/injection, schedule: Q07DX002 (ip), vehicle: distilled water + Tween-80) 114 % of control and 94 % of control and 107 % of control; (dose: 50.0 mg/kg/injection, schedule: Q07DX002 (ip), vehicle: distilled water + Tween-80) 53 % of control and 67 % of control.
On to `O=S(CCCl)CCCl`, for which the T/C (dose: 0.78 mg/kg/injection, schedule: Q07DX003 (ip), vehicle: Klucel (hydroxypropylcellulose) (HPC)) is 57 % of control; the T/C (dose: 1.56 mg/kg/injection, schedule: Q07DX003 (ip), vehicle: Klucel (hydroxypropylcellulose) (HPC)) is 84 % of control; the T/C (dose: 3.12 mg/kg/injection, schedule: Q07DX003 (ip), vehicle: Klucel (hydroxypropylcellulose) (HPC)) is 83 % of control; the T/C (dose: 6.25 mg/kg/injection, schedule: Q07DX003 (ip), vehicle: Klucel (hydroxypropylcellulose) (HPC)) was 87 % of control; the T/C (dose: 12.5 mg/kg/injection, schedule: Q07DX002 (ip), vehicle: Klucel (hydroxypropylcellulose) (HPC)) was 150 % of control; the T/C under setting [18] was 84 % of control. Besides, the T/C reads like this: under setting [6], 96 % of control; under setting [14], 95 % of control; under setting [1], 153 % of control; under setting [2], 110 % of control.
On to `CN(C)c1nc(N(C)C)nc(N(C)C)n1`, for which the T/C reads like this: (dose: 12.5 mg/kg/injection, schedule: Q07DX003 (ip), vehicle: saline with Tween-80) 68 % of control; (dose: 25.0 mg/kg/injection, schedule: Q07DX003 (ip), vehicle: saline with Tween-80) 91 % of control; (dose: 50.0 mg/kg/injection, schedule: Q07DX003 (ip), vehicle: saline with Tween-80) 112 % of control; (dose: 100.0 mg/kg/injection, schedule: Q07DX003 (ip), vehicle: saline with Tween-80) 66 % of control; (dose: 200.0 mg/kg/injection, schedule: Q07DX003 (ip), vehicle: saline with Tween-80) 65 % of control.
As to `CN(C1=NS(=O)(=O)N=C(N(C)c2ccccc2)O1)c1ccccc1`, the T/C is, setting by setting: under setting [18], 103 % of control; under setting [14], 68 % of control; under setting [2], 119 % of control; under setting [15], 101 % of control; under setting [3], 110 % of control; under setting [16], 113 % of control. For the same molecule, the T/C by setting is: under setting [4], 162 % of control; under setting [17], 113 % of control; under setting [5], 104 % of control; (dose: 1600.0 mg/kg/injection, schedule: Q07DX002 (ip), vehicle: Klucel (hydroxypropylcellulose) (HPC)) 159 % of control.
For `CN(C)CC(Cl)CCl` (centres undefined), the T/C was 118 % of control under setting [19]; 105 % of control under setting [10]; 115 % of control under setting [11]; 118 % of control under setting [12]; 88 % of control under setting [13].
Take `CC1=CC(=NN=c2cc(C)n([O-])c(C)c2)C=C(C)[N+]1=O`: the T/C was 82 % of control under setting [19]; 108 % of control under setting [10]; 123 % of control (dose: 25.0 mg/kg/injection, schedule: Q07DX002 (ip), vehicle: suspension in saline); 73 % of control (dose: 50.0 mg/kg/injection, schedule: Q07DX002 (ip), vehicle: saline); 97 % of control under setting [7]; 99 % of control under setting [12]. The T/C is 121 % of control under setting [8], 90 % of control under setting [13] and 98 % of control under setting [9].
